Experimental data reported in patent publication US10442796B2, “2,3,5-substituted thiophene compound as protein kinase inhibitor” (KOREA INSTITUTE OF SCIENCE AND TECHNOLOGY, priority 2016, dated 2019).

Tests used:
MINK = MINK (Homo sapiens, UniProt Q8N4C8); assay: Kinase inhibitory activity, full kinase panel; assay type: biochemical; settings: single concentration of 1 μM, read-out: %Inhibitory ability
Procedure: (§1) In order to measure inhibitory activity (% inhibitory ability) against a protein kinase with respect to the compound of the present invention, a biochemical assay was performed in a full kinase panel shown in the following Table 1. As an experimental compound, the (S)-5-((3-fluorophenyl)ethynyl)-N-(piperidin-3-yl)-3-ureidothiophene-2-carboxamide synthesized in Example 24 was used.

ULK2 = ULK2 (Homo sapiens, UniProt Q8IYT8); assay: Kinase inhibitory activity, full kinase panel; assay type: biochemical; settings: single concentration of 1 μM, read-out: %Inhibitory ability
Procedure: as §1

LRRK2 = LRRK2 (Homo sapiens, UniProt Q5S007); assay: Kinase inhibitory activity, full kinase panel; assay type: biochemical; settings: single concentration of 1 μM, read-out: %Inhibitory ability
Procedure: as §1

YANK1 = YANK1 (Homo sapiens, UniProt Q8WU08); assay: Kinase inhibitory activity, full kinase panel; assay type: biochemical; settings: single concentration of 1 μM, read-out: %Inhibitory ability
Procedure: as §1

BIKE = BIKE (Homo sapiens, UniProt Q9NSY1); assay: Kinase inhibitory activity, full kinase panel; assay type: biochemical; settings: single concentration of 1 μM, read-out: %Inhibitory ability
Procedure: as §1

SYK = SYK (Homo sapiens, UniProt P43405); assay: Kinase inhibitory activity, full kinase panel; assay type: biochemical; settings: single concentration of 1 μM, read-out: %Inhibitory ability
Procedure: as §1

RIOK1 = RIOK1 (Homo sapiens, UniProt Q9BRS2); assay: Kinase inhibitory activity, full kinase panel; assay type: biochemical; settings: single concentration of 1 μM, read-out: %Inhibitory ability
Procedure: as §1

VEGFR2 = VEGFR2 (Homo sapiens, UniProt P35968); assay: Kinase inhibitory activity, full kinase panel; assay type: biochemical; settings: single concentration of 1 μM, read-out: %Inhibitory ability
Procedure: as §1

MAP4K3 = MAP4K3 (Homo sapiens, UniProt Q8IVH8); assay: Kinase inhibitory activity, full kinase panel; assay type: biochemical; settings: single concentration of 1 μM, read-out: %Inhibitory ability
Procedure: as §1

PIP5K2B = PIP5K2B (Homo sapiens, UniProt P78356); assay: Kinase inhibitory activity, full kinase panel; assay type: biochemical; settings: single concentration of 1 μM, read-out: %Inhibitory ability
Procedure: as §1

TAK1 = TAK1 (Homo sapiens, UniProt O43318); assay: Kinase inhibitory activity, full kinase panel; assay type: biochemical; settings: single concentration of 1 μM, read-out: %Inhibitory ability
Procedure: as §1

FAK = FAK (Homo sapiens, UniProt Q05397); assay: Kinase inhibitory activity, full kinase panel; assay type: biochemical; settings: single concentration of 1 μM, read-out: %Inhibitory ability
Procedure: as §1

TGFBR2 = TGFBR2 (Homo sapiens, UniProt P37173); assay: Kinase inhibitory activity, full kinase panel; assay type: biochemical; settings: single concentration of 1 μM, read-out: %Inhibitory ability
Procedure: as §1

MAP3K3 = MAP3K3 (Homo sapiens, UniProt Q99759); assay: Kinase inhibitory activity, full kinase panel; assay type: biochemical; settings: single concentration of 1 μM, read-out: %Inhibitory ability
Procedure: as §1

CSK = CSK (Homo sapiens, UniProt P41240); assay: Kinase inhibitory activity, full kinase panel; assay type: biochemical; settings: single concentration of 1 μM, read-out: %Inhibitory ability
Procedure: as §1

SRC = SRC (Homo sapiens, UniProt P12931); assay: Kinase inhibitory activity, full kinase panel; assay type: biochemical; settings: single concentration of 1 μM, read-out: %Inhibitory ability
Procedure: as §1

SIK2 = SIK2 (Homo sapiens, UniProt Q9H0K1); assay: Kinase inhibitory activity, full kinase panel; assay type: biochemical; settings: single concentration of 1 μM, read-out: %Inhibitory ability
Procedure: as §1

MEK2 = MEK2 (Homo sapiens, UniProt P36507); assay: Kinase inhibitory activity, full kinase panel; assay type: biochemical; settings: single concentration of 1 μM, read-out: %Inhibitory ability
Procedure: as §1

FLT4 = FLT4 (Homo sapiens, UniProt P35916); assay: Kinase inhibitory activity, full kinase panel; assay type: biochemical; settings: single concentration of 1 μM, read-out: %Inhibitory ability
Procedure: as §1

[1] = tested on: FLT3-ITD-F691L-D835Y Ba/F3 cells; assay: In vivo life-span (survival) in mouse AML model; settings: for extension of lifespan compared with vehicle control: oral; for Median survival: qd
Procedure: (§2) Nude mice (5-6 weeks old)(Orient) were purchased and used after a week. Mice were anesthetized following IACUC approved animal protocol. FLT3-ITD F691L-D835Y, luc+ Ba/F3 cell (Established in-house) suspension (in 0.1 mL RPMI1640 (Welgene) of 1.0×10^6 cells) was injected into tail vein intravenously using a 29-G needle, and an tail mark was added to each animal for identification. After 6 days, the luminescence intensity was measured using IVIS (Perkin Elmer) to calculate the ROI intensity.
Each compound solution was prepared freshly just before administration. Compounds were administered orally using a mouse sondae once a day, 0.1 mL per mouse. Mice were humanely euthanized if animals experience 20% body weight loss.

[2] = tested on: FLT3-ITD-F691L-D835Y Ba/F3 cells; assay: Spleen size in mouse AML model; assay type: in vivo; settings: 15, 30 mg/kg; after drug administration for 9 days
Procedure: as §2, with “intensity. Once ROI intensity reaches the study-desired minimum intensity (usually 2×106), mice were randomized into different treatment groups based on signal intensity.” for “intensity.”
Each compound was dissolved in NMP at 20× final concentration and diluted to 1× with the remaining vehicle components (vehicle: 5% NMP, 15% solutol (Sigma-aldrich), 30% PEG400 (Sigma-aldrich), 50% 0.05M citric acid (Sigma-aldrich)). Each compound solution was prepared freshly just before administration. […]
Mice were then euthanized by cervical dislocation while they were still under isoflurane anesthesia. The spleens from the mice were isolated and weighted, and spleen weight index was calculated as organ weight (mg) per gram of mouse body weight. […]
Statistical analysis of luminescence signal intensity, mouse body weight, and spleen/body weight ratio were evaluated using two-way ANOVA. […]

Sequence of SRC (P12931 whole entry, species assumed): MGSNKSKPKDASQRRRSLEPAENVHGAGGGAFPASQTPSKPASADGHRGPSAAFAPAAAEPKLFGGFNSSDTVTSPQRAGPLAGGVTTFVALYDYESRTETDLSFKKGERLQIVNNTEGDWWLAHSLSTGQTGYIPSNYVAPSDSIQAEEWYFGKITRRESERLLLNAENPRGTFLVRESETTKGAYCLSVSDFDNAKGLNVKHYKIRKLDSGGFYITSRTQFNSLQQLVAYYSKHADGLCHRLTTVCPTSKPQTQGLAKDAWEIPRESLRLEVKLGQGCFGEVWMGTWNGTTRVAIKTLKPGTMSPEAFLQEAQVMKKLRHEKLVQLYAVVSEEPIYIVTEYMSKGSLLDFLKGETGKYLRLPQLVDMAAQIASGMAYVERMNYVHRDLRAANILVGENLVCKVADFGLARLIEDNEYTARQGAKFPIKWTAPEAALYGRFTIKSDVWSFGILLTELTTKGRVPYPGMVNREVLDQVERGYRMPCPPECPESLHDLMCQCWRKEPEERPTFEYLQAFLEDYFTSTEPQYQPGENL
Sequence of TGFBR2 (P37173 23-567, species assumed): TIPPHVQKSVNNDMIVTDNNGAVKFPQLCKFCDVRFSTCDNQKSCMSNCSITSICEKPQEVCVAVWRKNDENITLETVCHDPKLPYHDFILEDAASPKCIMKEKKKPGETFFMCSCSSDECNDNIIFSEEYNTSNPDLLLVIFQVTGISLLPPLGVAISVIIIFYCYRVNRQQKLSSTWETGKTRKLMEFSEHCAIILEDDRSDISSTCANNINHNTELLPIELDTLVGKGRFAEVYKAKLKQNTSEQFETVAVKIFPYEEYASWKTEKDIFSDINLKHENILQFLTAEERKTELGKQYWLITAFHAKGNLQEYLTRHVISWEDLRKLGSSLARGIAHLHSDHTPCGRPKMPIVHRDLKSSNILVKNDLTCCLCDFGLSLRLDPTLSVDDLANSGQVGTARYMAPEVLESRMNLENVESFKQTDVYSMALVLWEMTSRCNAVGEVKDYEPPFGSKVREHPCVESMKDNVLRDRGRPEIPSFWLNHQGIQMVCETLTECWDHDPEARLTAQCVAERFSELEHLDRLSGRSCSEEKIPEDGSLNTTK
Sequence of MINK (Q8N4C8 whole entry): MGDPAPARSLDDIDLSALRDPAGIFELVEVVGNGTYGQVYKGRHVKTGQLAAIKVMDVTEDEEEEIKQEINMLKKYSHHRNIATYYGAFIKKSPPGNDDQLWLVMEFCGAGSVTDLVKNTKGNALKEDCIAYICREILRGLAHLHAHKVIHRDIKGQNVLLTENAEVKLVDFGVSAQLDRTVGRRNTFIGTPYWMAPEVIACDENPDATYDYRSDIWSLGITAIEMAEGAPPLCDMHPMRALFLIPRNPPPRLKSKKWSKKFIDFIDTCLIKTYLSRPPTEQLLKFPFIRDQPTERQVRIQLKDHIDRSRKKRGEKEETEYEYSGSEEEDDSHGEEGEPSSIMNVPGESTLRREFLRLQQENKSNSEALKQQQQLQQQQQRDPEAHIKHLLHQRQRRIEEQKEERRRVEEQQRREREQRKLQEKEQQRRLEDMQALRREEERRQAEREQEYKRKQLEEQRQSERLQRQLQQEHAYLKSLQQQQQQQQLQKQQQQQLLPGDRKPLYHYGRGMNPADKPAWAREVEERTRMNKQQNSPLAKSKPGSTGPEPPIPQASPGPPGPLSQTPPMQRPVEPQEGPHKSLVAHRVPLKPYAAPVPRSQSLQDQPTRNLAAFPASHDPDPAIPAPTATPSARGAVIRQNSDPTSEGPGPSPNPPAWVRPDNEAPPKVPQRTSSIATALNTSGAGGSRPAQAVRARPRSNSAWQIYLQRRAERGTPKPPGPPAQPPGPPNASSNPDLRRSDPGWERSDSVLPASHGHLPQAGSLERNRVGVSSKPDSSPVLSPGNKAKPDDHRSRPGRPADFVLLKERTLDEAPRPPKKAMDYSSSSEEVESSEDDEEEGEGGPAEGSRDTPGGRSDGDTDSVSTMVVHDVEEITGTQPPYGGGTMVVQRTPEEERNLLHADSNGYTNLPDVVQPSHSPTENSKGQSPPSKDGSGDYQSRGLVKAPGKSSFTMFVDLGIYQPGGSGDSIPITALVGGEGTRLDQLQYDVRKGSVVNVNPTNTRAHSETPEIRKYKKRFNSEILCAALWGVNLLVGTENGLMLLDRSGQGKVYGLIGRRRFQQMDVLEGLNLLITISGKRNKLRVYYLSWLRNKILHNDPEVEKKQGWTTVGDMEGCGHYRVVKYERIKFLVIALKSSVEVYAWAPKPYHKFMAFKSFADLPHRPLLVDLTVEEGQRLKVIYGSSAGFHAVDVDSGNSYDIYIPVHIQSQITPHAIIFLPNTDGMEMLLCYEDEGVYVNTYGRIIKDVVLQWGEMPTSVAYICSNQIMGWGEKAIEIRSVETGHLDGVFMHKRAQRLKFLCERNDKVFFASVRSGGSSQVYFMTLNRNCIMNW
Sequence of MAP3K3 (Q99759 whole entry, species assumed): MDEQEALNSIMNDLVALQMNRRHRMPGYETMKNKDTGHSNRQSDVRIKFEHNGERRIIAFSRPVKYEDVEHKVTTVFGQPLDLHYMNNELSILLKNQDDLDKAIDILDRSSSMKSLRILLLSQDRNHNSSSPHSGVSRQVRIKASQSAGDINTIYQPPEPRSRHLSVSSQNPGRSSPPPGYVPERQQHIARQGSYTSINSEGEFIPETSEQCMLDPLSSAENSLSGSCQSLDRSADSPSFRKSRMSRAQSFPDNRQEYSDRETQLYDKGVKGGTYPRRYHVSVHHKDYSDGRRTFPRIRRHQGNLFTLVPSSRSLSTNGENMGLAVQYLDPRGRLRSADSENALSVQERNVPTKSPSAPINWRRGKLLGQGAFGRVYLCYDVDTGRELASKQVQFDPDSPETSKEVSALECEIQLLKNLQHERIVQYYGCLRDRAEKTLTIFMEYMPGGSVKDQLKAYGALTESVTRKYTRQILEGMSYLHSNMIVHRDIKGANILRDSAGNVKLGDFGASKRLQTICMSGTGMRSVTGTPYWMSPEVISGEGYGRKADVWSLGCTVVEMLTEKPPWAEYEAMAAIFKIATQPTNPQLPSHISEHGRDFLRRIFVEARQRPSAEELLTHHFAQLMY
Sequence of VEGFR2 (P35968 20-1356, species assumed): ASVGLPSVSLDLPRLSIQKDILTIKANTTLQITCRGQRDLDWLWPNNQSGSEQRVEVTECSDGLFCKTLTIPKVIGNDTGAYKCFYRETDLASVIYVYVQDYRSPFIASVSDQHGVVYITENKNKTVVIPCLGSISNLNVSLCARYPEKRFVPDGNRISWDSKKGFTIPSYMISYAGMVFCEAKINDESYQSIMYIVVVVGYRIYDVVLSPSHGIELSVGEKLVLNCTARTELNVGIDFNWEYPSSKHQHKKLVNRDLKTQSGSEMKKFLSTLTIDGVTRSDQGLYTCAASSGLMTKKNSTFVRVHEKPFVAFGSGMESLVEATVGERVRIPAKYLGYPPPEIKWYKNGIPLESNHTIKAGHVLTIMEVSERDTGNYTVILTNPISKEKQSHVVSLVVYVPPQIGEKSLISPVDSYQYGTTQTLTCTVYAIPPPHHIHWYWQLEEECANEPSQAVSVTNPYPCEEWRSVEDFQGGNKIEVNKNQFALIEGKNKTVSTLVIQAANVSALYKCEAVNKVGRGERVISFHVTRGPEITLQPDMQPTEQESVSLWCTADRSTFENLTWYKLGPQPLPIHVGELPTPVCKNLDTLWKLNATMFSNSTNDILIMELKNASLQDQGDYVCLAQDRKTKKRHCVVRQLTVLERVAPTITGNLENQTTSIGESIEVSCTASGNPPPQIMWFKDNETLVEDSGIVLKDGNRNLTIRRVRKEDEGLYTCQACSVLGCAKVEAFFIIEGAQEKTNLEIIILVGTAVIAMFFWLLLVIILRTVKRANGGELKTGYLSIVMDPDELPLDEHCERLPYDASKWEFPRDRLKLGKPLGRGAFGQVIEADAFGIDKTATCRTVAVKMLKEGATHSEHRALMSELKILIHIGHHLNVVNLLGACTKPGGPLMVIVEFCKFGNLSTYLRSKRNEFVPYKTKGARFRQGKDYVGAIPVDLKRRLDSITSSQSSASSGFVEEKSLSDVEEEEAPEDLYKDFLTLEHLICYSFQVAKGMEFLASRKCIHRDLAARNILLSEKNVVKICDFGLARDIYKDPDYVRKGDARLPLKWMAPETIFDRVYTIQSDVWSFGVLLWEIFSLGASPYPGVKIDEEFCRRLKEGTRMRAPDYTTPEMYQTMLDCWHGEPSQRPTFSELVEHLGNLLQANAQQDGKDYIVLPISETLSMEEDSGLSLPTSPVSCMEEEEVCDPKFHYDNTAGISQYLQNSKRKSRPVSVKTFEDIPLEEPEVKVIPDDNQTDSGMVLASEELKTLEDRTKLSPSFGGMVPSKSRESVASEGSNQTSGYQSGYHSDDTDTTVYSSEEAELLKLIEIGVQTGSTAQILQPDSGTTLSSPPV
Sequence of TAK1 (O43318 whole entry): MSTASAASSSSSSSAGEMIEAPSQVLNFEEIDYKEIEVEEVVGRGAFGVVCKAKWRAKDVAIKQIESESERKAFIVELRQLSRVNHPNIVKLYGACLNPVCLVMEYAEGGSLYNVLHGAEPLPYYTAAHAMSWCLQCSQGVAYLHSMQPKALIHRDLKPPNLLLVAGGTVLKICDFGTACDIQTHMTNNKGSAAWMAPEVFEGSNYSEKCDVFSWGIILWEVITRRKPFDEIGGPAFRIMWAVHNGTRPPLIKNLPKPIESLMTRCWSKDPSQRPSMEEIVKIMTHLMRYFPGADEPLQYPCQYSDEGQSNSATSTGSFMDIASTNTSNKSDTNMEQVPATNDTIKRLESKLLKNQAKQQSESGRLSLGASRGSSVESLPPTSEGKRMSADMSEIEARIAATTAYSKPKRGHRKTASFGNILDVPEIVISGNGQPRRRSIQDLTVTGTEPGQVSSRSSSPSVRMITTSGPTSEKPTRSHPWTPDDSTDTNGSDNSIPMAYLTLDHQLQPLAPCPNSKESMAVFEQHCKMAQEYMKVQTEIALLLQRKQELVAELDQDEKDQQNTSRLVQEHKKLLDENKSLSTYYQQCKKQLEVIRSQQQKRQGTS

Cc1ccc(C#Cc2cc(NC(N)=O)c(C(=O)N[C@H]3CCCNC3)s2)cc1 [Example 24, (S)—N-(piperidin-3-yl)-5-(p-tolylethynyl)-3-ureidothiophene-2-carboxamide] was tested, and the inhibition at 1 µM (MINK) was 97.1%, the inhibition at 1 µM (ULK2) was 99.7% and the inhibition at 1 µM (LRRK2) was 72%. For the same compound, the inhibition at 1 µM (YANK1) was 95.5%, the inhibition at 1 µM (BIKE) was 77% and the inhibition at 1 µM (SYK) was 91.5%. The inhibition at 1 µM (RIOK1) was 77%, the inhibition at 1 µM (VEGFR2) was 73% and the inhibition at 1 µM (MAP4K3) was 69%. The inhibition at 1 µM (PIP5K2B) was 74%, the inhibition at 1 µM (TAK1) was 91.5% and the inhibition at 1 µM (FAK) was 75%. For the same compound, the inhibition at 1 µM (TGFBR2) was 72%, the inhibition at 1 µM (MAP3K3) was 94.6% and the inhibition at 1 µM (CSK) was 92.1%. The inhibition at 1 µM (SRC) was 98.1%, the inhibition at 1 µM (SIK2) was 73% and the inhibition at 1 µM (MEK2) was 93.3%. For the same compound, the inhibition at 1 µM (FLT4) was 94.5%.

In the case of NC(=O)Nc1cc(C#Cc2cccc(F)c2)sc1C(=O)N[C@H]1CCCNC1 [Example 22, (S)-5-((3-fluorophenyl)ethynyl)-N-(piperidin-3-yl)-3-ureidothiophene-2-carboxamide], the “extension of lifespan compared with vehicle control” value ([1]; 15 mpk) was 26 days, the Median survival ([1]; 15 mpk, po) was 23 and the “extension of lifespan compared with vehicle control” value ([1]; 30 mpk) was 29 days. For the same compound, the Median survival ([1]; 30 mpk, po) was 27, the “life-span of the mouse model (in words)” value ([1]; po, qd, 15, 30 mg/kg) was “extended significantly the life-span” and the “spleen size (spleen weight over mouse body weight)” value [2] was “reduced to the disease free spleen size”.
